{"source": "patent US5744424A", "key": {"plant species": {"test_system": "plant species", "conditions": "cited from earlier work"}, "physchem [1]": {"assay": "physchem", "text": "where Percent \"S\" is the per unit volume of N^6 BA expressed as a percentage and \"N\" is the Normality of the solution after dissolution of N^6 BA in the solution."}, "physchem [2]": {"assay": "physchem", "conditions": "water koh 0.0025 n", "text": "The solubility data enable address a second underlying problem encountered when the aqueous hydroxide solution is employed."}, "[3]": {"conditions": "cited from earlier work"}, "turf grasses": {"test_system": "turf grasses", "assay": "Force required to extract grass sod plugs (root density, FIG. 4)"}, "[4]": {"conditions": "water; 18° C.; cited from earlier work"}, "[5]": {"conditions": "cited from earlier work", "remark": "listed apart in the source"}}, "data": [{"smiles": "c1ccc(CNc2ncnc3nc[nH]c23)cc1", "note": "[N^6 BA]", "values": [{"measurement": "responses elicited in plants", "setting": "plant species; general", "value": "promotion of cell division, inhibition of respiration, increasing retention of water and drought resistance, enhancing root and top growth with change in root/top ratios as well as shortening plant internodes"}, {"measurement": "chlorophyll retention", "setting": "plant species; pre and post harvest commodities", "value": "increase chlorophyll retention"}, {"measurement": "solubility", "setting": "physchem [1]; aqueous koh 2.875 n", "value": "~455", "unit": "mg/mL"}, {"measurement": "solubility", "setting": "physchem [1]; koh in 95% ethanol, organic solvent or mixture", "value": "~540", "unit": "mg/mL"}, {"measurement": "solubility", "setting": "physchem [2]", "value": 0.062, "unit": "mg/mL"}, {"measurement": "dissolved concentration in mineral acids", "setting": "[3]; mineral acids", "value": "approximately 5%"}, {"measurement": "solubility in water", "setting": "[3]; water", "value": "about 0.00044 grams per 100 milliliters"}, {"measurement": "efficacy of N^6 BA in presence of iron", "setting": "turf grasses; large amount of ferrous iron ions", "value": "a decrease in the efficacy of N^6 BA"}]}, {"smiles": "[K+].[OH-]", "note": "[KOH, potassium hydroxide]", "values": [{"measurement": "normality of saturated solution", "setting": "[4]", "value": 18.0}]}, {"smiles": "[Mg+2].[OH-].[OH-]", "note": "[magnesium hydroxide]", "values": [{"measurement": "normality of saturated solution", "setting": "[4]", "value": 8.2}]}, {"smiles": "[Na+].[OH-]", "note": "[NaOH, sodium hydroxide]", "values": [{"measurement": "normality of saturated solution", "setting": "[4]", "value": 21.0}]}, {"smiles": "O.O.O.O.O.O.O.O=S(=O)([O-])[O-].[Fe+2]", "note": "[iron, Ferrous sulphate heptahydrate]", "values": [{"measurement": "practical concentration of iron in liquid spray concentrates", "setting": "[5]", "value": "5-6%"}, {"measurement": "root development", "setting": "turf grasses; iron to N^6 BA molecular ratio of about 200:1 or greater", "value": "substantially decreases root development"}]}, {"smiles": "[OH-].[OH-].[Zn+2]", "note": "[zinc hydroxide]", "values": [{"measurement": "normality of saturated solution", "setting": "[4]", "value": 9.4}]}, {"smiles": "[Ca+2].[OH-].[OH-]", "note": "[Calcium hydroxide]", "values": [{"measurement": "normality of saturated solution", "setting": "[4]", "value": 9.6}]}]}
